How the values were obtained:
ATM enzyme (human) = ATM enzyme (human) (Homo sapiens, UniProt Q13315); test: ATM kinase assay (HTRF, GST-cMyc-p53 substrate); type: biochemical; conditions: for inhibition at 0.001 µM / inhibition at 0.01 µM / inhibition at 0.1 µM / inhibition at 1 µM: 0.5 h, read-out: Inh (%) of ATM kinase; for inhibition at 0.001 µM: C 0.001 μm (final concentration of compound); for inhibition at 0.01 µM: C 0.01 μm (final concentration of compound); for inhibition at 0.1 µM: C 0.1 μm (final concentration of compound)
Procedure: In Vitro Inhibition of ATM by N,N-dimethyl-3-(4-(1-(tetrahydro-2H-pyran-4-yl)-[1,2,4]triazolo[4,3-a]quinoxalin-8-yl)phenoxy)propan-1-amine and its Analogues was Determined by ATM Kinase Assay
The reaction was initiated by the addition of a Mg/ATP mixture and incubation for 30 minutes at room temperature, the reaction was quenched by the addition of a stop solution containing EDTA. Finally, the detection buffer containing the d2-labeled anti-GST monoclonal antibody and the europium-labeled anti-phospho p53 (Ser15) antibody was added. The plate was then read in time resolved fluorescence mode and the homogeneous time resolved fluorescence (HTRF) signal was determined according to the equation: HTRF=10000×(Em665nm/Em620nm). Each compound sample was repeated in duplicate. The experiment negative control was all components except of the ATM enzyme and the positive control contained all components. All reactions were quenched by adding EDTA.
ATM kinase inhibition was detected by using the method described above. The curve equation for calculating IC50 value is as follows:
[formula] • wherein, C is the concentration of compound and D is the slope factor.

[1] = tested on: human colon cancer cell SW620; test: MTT assay, growth of SW620 cells, compounds combined with CPT-11; type: cell-based; conditions: for IC50: combined with CPT-11 (205 nM medium), 5 days, MTT
Procedure: Inhibitory effects of N,N-dimethyl-3-(4-(1-(tetrahydro-2H-pyran-4-yl)-[1,2,4]triazolo[4,3-a]quinoxalin-8-yl)phenoxy)propan-1-amine and its Analogues Combined with CPT-11 on the Growth of Human Colon Cancer Cell SW620 were Determined by MTT Assay
(§1) SW620 cells were digested by trypsinase, centrifuged at 800 rpm for 5 minutes, the supernatant was discarded, resuspended with fresh medium (RPMI 1640 medium+10% FBS) and counted. The cells were seeded into 96-well cell culture plate with appropriate cell density and incubated overnight in a 37° C. 5% CO2 incubator. The stock solutions of the tested compound and the reference compound AZD0156 were serially diluted to 8 concentrations by DMSO at the ratios of 1:3 and 1:10, respectively, the first concentration was 10 μM or 1 μM, and the last concentration was negative control of DMSO (0 μM, the final concentration of DMSO was 1%). 5 μL of each concentration was added to 120 μL of medium (25 times diluted) and mixed by shaking. The overnight cells were taken and the culture medium was removed, 195 μL of fresh medium containing 205 nM CPT-11 was added to each well, and 5 μL of diluted medium containing the corresponding concentration of the tested sample was added respectively, and the culture plate was then placed in the 5% CO2 cell culture incubator at 37° C. for 5 days. After removing the original solution, 100 pt of fresh serum-free DMEM medium containing MTT (0.5 mg/mL) was added to each well, the culture was continued. After 4 hours, the original solution was removed, 100 μL of DMSO was added into each well, the 96-well plates were shaken away from light for 10 minutes and placed in a multi-function reader to read the absorbance at the wavelength of 552/630/690 nm. GraphPad Prism 6.0 was used to analyze the data. The inhibitory activity of compounds on cell proliferation was plotted based on cell viability and compound concentration. The IC50 value was fitted by a sigmoidal dose response curve equation Y=100/(1+10^(Log C−Log IC50)), where C was the concentration of compound.
Table 3 summarizes the inhibitory effects of compounds combined with CPT-11 on the growth of human colon cancer cell SW620 (IC50).

[2] = tested on: human breast cancer cell MDA-MB-468; test: MTT assay, growth of MDA-MB-468 cells; type: cell-based; conditions: for IC50: 7 days, MTT
Procedure: Inhibitory Effects of N,N-dimethyl-3-(4-(1-(tetrahydro-2H-pyran-4-yl)-[1,2,4]triazolo[4,3-a]quinoxalin-8-yl)phenoxy)propan-1-amine and its Analogues on the Growth of Human Breast Cancer Cell MDA-MB-468 were Determined by MTT Assay
as §1, with “MDA-MB-468 cells” for “SW620 cells”, “1:10, respectively:” for “1:10, respectively,”, “was 100” for “was 10”, “medium” for “medium containing 205 nM CPT-11”, “for 7 days (On the fourth day, the medium containing drugs was removed and fresh medium containing drugs was added for continuous cultivation).” for “for 5 days.”, “100 μL” for “100 pt”
Table 4 summarizes the inhibitory effects of compounds on the growth of human breast cancer cell MDA-MB-468 (IC50).

[3] = C 1 μm (final concentration of compound)
[4] = Homo sapiens, MDA-MB-468, 168 h

ATM enzyme (human), sequence (Q13315 whole entry): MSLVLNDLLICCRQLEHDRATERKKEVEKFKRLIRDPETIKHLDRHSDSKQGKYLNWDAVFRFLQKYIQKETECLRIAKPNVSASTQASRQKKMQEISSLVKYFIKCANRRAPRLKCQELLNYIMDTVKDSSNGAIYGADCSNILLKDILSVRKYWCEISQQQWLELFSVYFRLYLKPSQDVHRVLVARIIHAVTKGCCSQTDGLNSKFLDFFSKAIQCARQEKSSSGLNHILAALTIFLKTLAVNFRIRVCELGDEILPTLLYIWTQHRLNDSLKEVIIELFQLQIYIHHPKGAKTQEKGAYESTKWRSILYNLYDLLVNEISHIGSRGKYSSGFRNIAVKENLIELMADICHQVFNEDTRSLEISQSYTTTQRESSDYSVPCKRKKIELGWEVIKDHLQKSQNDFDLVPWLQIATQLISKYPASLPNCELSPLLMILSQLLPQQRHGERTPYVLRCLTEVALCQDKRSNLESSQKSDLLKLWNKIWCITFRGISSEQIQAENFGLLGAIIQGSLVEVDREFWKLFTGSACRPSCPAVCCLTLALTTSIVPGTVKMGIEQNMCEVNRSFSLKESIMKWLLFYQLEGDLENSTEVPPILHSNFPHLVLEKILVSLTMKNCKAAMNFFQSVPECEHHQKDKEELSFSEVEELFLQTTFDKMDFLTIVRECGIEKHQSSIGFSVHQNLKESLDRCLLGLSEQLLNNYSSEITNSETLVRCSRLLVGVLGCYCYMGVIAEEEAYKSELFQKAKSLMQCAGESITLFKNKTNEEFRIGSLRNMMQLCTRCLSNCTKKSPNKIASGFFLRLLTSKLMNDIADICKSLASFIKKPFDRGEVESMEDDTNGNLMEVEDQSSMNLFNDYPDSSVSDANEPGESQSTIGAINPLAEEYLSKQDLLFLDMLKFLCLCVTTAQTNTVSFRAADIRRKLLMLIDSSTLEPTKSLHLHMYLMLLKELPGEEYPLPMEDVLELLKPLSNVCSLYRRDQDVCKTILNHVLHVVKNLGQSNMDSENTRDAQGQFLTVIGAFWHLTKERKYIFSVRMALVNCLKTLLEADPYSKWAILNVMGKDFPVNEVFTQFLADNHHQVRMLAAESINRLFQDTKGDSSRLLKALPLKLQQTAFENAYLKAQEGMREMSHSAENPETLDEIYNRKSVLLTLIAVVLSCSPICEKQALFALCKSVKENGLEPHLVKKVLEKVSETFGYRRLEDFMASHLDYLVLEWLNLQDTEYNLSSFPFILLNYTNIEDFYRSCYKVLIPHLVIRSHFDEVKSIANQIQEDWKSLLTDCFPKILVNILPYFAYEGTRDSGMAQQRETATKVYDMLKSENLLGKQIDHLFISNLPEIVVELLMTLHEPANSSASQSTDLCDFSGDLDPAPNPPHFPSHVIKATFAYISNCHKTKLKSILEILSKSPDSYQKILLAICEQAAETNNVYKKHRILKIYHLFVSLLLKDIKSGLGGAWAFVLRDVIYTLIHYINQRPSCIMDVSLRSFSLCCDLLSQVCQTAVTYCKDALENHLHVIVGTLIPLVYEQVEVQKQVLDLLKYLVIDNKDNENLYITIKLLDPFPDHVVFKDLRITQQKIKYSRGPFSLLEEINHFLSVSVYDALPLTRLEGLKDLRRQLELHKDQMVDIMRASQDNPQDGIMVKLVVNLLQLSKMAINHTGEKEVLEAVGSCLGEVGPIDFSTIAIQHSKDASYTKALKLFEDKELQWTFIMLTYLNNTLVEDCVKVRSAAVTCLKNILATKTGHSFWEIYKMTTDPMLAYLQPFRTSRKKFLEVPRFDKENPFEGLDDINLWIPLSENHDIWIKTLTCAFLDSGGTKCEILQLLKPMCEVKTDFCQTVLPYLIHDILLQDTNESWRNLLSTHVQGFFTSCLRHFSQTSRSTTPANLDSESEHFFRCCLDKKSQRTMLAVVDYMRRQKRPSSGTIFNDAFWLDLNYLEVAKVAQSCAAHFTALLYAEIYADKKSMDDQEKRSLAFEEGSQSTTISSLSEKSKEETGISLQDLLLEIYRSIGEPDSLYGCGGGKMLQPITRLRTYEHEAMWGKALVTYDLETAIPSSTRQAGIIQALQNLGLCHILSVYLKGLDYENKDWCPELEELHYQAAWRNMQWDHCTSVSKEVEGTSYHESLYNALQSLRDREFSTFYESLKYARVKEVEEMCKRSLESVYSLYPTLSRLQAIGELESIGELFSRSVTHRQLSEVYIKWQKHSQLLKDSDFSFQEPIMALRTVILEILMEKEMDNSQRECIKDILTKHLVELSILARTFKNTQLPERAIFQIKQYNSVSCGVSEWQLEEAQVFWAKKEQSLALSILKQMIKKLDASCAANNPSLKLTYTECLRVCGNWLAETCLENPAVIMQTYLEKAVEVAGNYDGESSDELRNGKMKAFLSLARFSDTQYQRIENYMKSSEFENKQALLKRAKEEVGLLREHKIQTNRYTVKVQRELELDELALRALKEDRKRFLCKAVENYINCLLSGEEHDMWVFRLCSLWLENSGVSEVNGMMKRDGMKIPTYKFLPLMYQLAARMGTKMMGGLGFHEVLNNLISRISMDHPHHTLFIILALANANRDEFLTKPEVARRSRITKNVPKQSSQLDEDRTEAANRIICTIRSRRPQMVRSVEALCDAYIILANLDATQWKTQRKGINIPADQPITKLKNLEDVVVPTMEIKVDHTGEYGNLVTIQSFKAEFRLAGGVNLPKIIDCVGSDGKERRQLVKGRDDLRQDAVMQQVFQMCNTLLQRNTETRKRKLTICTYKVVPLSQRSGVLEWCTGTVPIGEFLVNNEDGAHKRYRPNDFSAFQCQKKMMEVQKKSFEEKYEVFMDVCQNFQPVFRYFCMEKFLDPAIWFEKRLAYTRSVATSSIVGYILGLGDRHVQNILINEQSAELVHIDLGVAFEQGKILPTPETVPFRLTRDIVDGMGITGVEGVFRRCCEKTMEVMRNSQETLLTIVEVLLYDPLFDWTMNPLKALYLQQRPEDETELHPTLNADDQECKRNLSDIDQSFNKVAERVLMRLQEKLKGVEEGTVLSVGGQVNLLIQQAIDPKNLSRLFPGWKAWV

SMILES	inhibition at 0.001 µM (ATM enzyme (human)) [%]	inhibition at 0.01 µM (ATM enzyme (human)) [%]	inhibition at 0.1 µM (ATM enzyme (human)) [%]	inhibition at 1 µM (ATM enzyme (human); [3]) [%]	IC50 ([1]; Homo sapiens, SW-620, 120 h) [nM]	IC50 [2, 4] [nM]	inhibitory effect on the growth of SW620 cells (in words) ([1]; MTT assay, combined with CPT-11)	inhibitory effect on the growth of MDA-MB-468 cells (in words) ([2]; MTT assay)	Inh (%) of ATM kinase (ATM enzyme (human); [3]) [%]	IC50 [1] [nM]	IC50 [2] [nM]
C[C@@H]1CN(c2nnc3cnc4ccc(-c5ccc(OCCCN(C)C)cc5)cc4n23)C[C@H](C)N1C [Example 23, N,N-dimethyl-3-(4-(1-((3S,5R)-3,4,5-trimethylpiperazin-1-yl)-[1,2,4]triazolo[4,3-a]quinoxalin-8-yl)phenoxy)propan-1-amine]	60	81	99	100	65.1	54.1	inhibited the growth of SW620 cell	inhibited the growth of MDA-MB-468 cell	–	–	–
CN(C)CCCOc1ccc(-c2ccc3ncc4nnc(C5CCOCC5)n4c3n2)cc1 [Example 31, N,N-dimethyl-3-(4-(9-(tetrahydro-2H-pyran-4-yl)pyrido[3,2-e][1,2,4]triazolo[4,3-a]pyrazin-2-yl)phenoxy)propan-1-amine]	–	51	92	100	262	335	–	–	–	–	–
CN(C)CCCOc1ccc(-c2ccc3ncc4nnc(N5CCCCC5)n4c3c2)cc1 [Example 20, N,N-dimethyl-3-(4-(1-(piperidin-1-yl)-[1,2,4]triazolo[4,3-a]quinoxalin-8-yl)phenoxy)propan-1-amine]	–	79	99	100	144	122	–	–	–	–	–
CN(C)CCCN(C)c1ccc(-c2ccc3ncc4nnc(C5CCOCC5)n4c3c2)cc1 [Example 11, N-(3-(dimethylamino)propyl)-N-methyl-4-(1-(tetrahydro-2H-pyran-4-yl)-[1,2,4]triazolo[4,3-a]quinoxalin-8-yl)aniline]	–	–	–	64	> 100000	> 100000	–	–	–	–	–
CCNC1CCN(c2ccc(-c3ccc4ncc5nnc(C6CCOCC6)n5c4n3)cc2)CC1 [Example 75, N-ethyl-1-(4-(9-(tetrahydro-2H-pyran-4-yl)pyrido[3,2-e][1,2,4]triazolo[4,3-a]pyrazin-2-yl)phenyl)piperidin-4-amine]	–	–	–	100	158	168	–	–	–	–	–
CN(C)C1CCN(c2ccc(-c3ccc4ncc5nnc(N6CCC(N(C)C)CC6)n5c4c3)cc2)CC1 [Example 64, 1-(4-(1-(4-(dimethylamino)piperidin-1-yl)-[1,2,4]triazolo[4,3-a]quinoxalin-8-yl)phenyl)-N,N-dimethylpiperidin-4-amine]	–	–	–	98	> 10000	> 10000	–	–	–	–	–
CN(C)CC1CCN(c2ccc(-c3ccc4ncc5nnc(C6CCOCC6)n5c4c3)cc2)CC1 [Example 53, N,N-dimethyl-1-(1-(4-(1-(tetrahydro-2H-pyran-4-yl)-[1,2,4]triazolo[4,3-a]quinoxalin-8-yl)phenyl)piperidin-4-yl)methanamine]	–	–	–	77	> 100000	> 100000	–	–	–	–	–
CN(C)CCC1CCN(c2ccc(-c3ccc4ncc5nnc(C6CCOCC6)n5c4c3)cc2)CC1 [Example 54, N,N-dimethyl-2-(1-(4-(1-(tetrahydro-2H-pyran-4-yl)-[1,2,4]triazolo[4,3-a]quinoxalin-8-yl)phenyl)piperidin-4-yl)ethan-1-amine]	–	–	–	82	> 100000	> 100000	–	–	–	–	–
CN(C)CCCOc1ccc(-c2ccc3ncc4c(c3c2)n(C2CCOCC2)c(=O)n4C)cn1 [AZD0156, reference compound]	–	–	–	–	–	–	–	–	100	10	10.9
C[C@@H]1CN(c2nnc3cnc4ccc(-c5ccc(N6CCC(N(C)C)CC6)cc5)nc4n23)C[C@H](C)N1C [Example 84, N,N-dimethyl-1-(4-(9-((3S,5R)-3,4,5-trimethylpiperazin-1-yl)pyrido[3,2-e][1,2,4]triazolo[4,3-a]pyrazin-2-yl)phenyl)piperidin-4-amine]	–	–	–	–	70.5	246	–	–	–	–	–

Further lines, with some results ahead:

inhibition at 0.001 µM (ATM enzyme (human)) [%]	inhibition at 0.01 µM (ATM enzyme (human)) [%]	inhibition at 0.1 µM (ATM enzyme (human)) [%]	inhibition at 1 µM (ATM enzyme (human); [3]) [%]	IC50 ([1]; Homo sapiens, SW-620, 120 h) [nM]	IC50 [2, 4] [nM]	SMILES	inhibitory effect on the growth of SW620 cells (in words) ([1]; MTT assay, combined with CPT-11)	inhibitory effect on the growth of MDA-MB-468 cells (in words) ([2]; MTT assay)	Inh (%) of ATM kinase (ATM enzyme (human); [3]) [%]	IC50 [1] [nM]	IC50 [2] [nM]
–	–	–	100	612	930	Cc1cc(-c2ccc3ncc4nnc(C5CCOCC5)n4c3c2)ccc1N1CCC(N(C)C)CC1 [Example 46, N,N-dimethyl-1-(2-methyl-4-(1-(tetrahydro-2H-pyran-4-yl)-[1,2,4]triazolo[4,3-a]quinoxalin-8-yl)phenyl)piperidin-4-amine]	–	–	–	–	–
–	–	–	74	> 10000	3680	CN(C)C1CCN(c2ccc(-c3ccc4ncc5nnc(C6CCOCC6)n5c4c3)c(C(F)(F)F)c2)CC1 [Example 51, N,N-dimethyl-1-(4-(1-(tetrahydro-2H-pyran-4-yl)-[1,2,4]triazolo[4,3-a]quinoxalin-8-yl)-3-(trifluoromethyl)phenyl)piperidin-4-amine]	–	–	–	–	–
–	62	93	100	184	161	CN(C)C1CCN(c2ccc(-c3ccc4ncc5nnc(C6CCOCC6)n5c4c3)c(F)c2)CC1 [Example 48, 1-(3-fluoro-4-(1-(tetrahydro-2H-pyran-4-yl)-[1,2,4]triazolo[4,3-a]quinoxalin-8-yl)phenyl)-N,N-dimethylpiperidin-4-amine]	–	–	–	–	–
–	–	–	19	> 100000	> 100000	CN(C)C1CCN(c2ccc(-c3cc4c(cn3)ncc3nnc(C5CCOCC5)n34)cc2)CC1 [Example 71, N,N-dimethyl-1-(4-(1-(tetrahydro-2H-pyran-4-yl)pyrido[3,4-e][1,2,4]triazolo[4,3-a]pyrazin-8-yl)phenyl)piperidin-4-amine]	–	–	–	–	–
39	82	97	99	62.9	104	CN(C)C1CCN(c2ccc(-c3ccc4ncc5nnc(C6CCOCC6)n5c4n3)cc2)CC1 [Example 72, N,N-dimethyl-1-(4-(9-(tetrahydro-2H-pyran-4-yl)pyrido[3,2-e][1,2,4]triazolo[4,3-a]pyrazin-2-yl)phenyl)piperidin-4-amine]	–	–	–	–	–
